From paper PMC12428554, “Anti-HIV and Antimicrobial Activity of 7-Hydrazino-8-hydroxyquinoline-Based Aromatic Hydrazones” (International Journal of Molecular Sciences, 2025) come the findings set out here.

In brackets after ≈: the same amount, converted by molar mass. A value given as a limit tells only on which side of the number the result lay.

Data set [1] concerns HIV-1 (subtype B) in MT-4 cells. The data set is described as follows: Antigen p24 assay in HIV-infected MT-4 cells. Particulars: Human immunodeficiency virus 1, MT4; HIV-1 899A strain (subtype B), third day after infection. It counts as cell-based. Here is the method: The human MT-4 lymphoblastoid cells were cultured in RPMI 1640 medium supplemented with 10% fetal bovine serum (FBS) (HyClone, Logan, UT, USA), 2 mM L-glutamine, 50 U/mL penicillin, and 50 μg/mL streptomycin in a humidified atmosphere of 5% CO2 at 37 °C. The cells were re-seeded at a density of 3.0 × 10^5 cells/mL every three days. The HIV-1_899A strain (subtype B) was used from the collection of human immunodeficiency virus strains of the D.I. Ivanovsky Institute of Virology, N. F. Gamaleya National Research Center of Epidemiology and Microbiology, Ministry of Health, Moscow, Russia. The commercial drug Efavirenz (EFV), a non-nucleoside inhibitor of HIV reverse transcriptase, was used as a positive control. HIV-1 was added to the cells at 0.1 CCID50 (50% cell culture infectious dose). The cells, both infected and non-infected, were then incubated at 37 °C in a humidified atmosphere containing 5% CO2 for a 40 min period, after which the cells were washed twice in serum-free RPMI 1640 and plated into the wells of a 96-well plate. The tested compounds were then added to the cells at concentrations from 0.5 μM to 100 μM. The final ethanol concentration was 1% v/v. On the third day after infection, the culture fluid was collected for determining the amount of p24 antigen by enzyme immunoassay analysis using a commercial test system kit (Genscreen ULTRA HIV Ag-Ab, Bio-Rad, Hercules, CA, USA). Cell viability was measured by MTT assay.

In the next data set the target is T1, Ku70–DNA complex (Homo sapiens, UniProt P12956).
T1 construct: made in house; host or cells: Escherichia coli
The data set is described as follows: EMSA of Ku70/Ku80–DNA complex formation. Particulars: 12.8 nM Ku heterodimer, 4 nM labelled 40 mer DNA duplex, read-out: IC50, inhibition of Ku70–DNA complex formation. It counts as binding. The procedure:
A bicistronic construct was used for the simultaneous expression of the Ku70 and Ku80 proteins in E. coli. Proteins were chromatographically purified with a 6His-tag at the N terminus of the Ku80 subunit. Recombinant Ku protein was produced in bacterial cell culture, purified, and its DNA-binding activity was characterized.
Isolation was performed using affinity chromatography on Ni^2+-NTA resin. The presence of Ku and impurities was monitored using SDS-PAGE and Western blot analysis. The testing of substances as potential inhibitors of the interaction of the Ku heterodimer with DNA was carried out using the gel inhibition assay.
The testing of substances as potential inhibitors of the interaction of the Ku heterodimer with DNA was carried out using the EMSA. […] The result was visualized by radioautography on a Typhoon FLA 9500 PhosphorImager (GE Healthcare Technologies, Chicago, IL, USA). The counting of radioautograms was performed using QuantityOne 4.6.6 software (Bio-Rad, Hercules, CA, USA). The calculation of IC50 parameters was carried out by Prism 8.0.1 software (GraphPad Software, San-Diego, CA, USA).
(In general: In EMSA bound probe runs differently from free probe, usually more slowly.)

A short description of data set [2]: Water solubility and stability of hydrazones and alginate microgels. It counts as physicochemical. Particulars: preliminary studies. The procedure:
The expected mass loading of microgels was 33% (5.0 mg of alginate + 2.5 mg of a sample). A solution of sodium alginate was prepared at a concentration of 3.0 mg/mL. 1.700 mL of sodium alginate solution and 3.283 mL of distilled water were added to the beaker and an equimolar copper sulfate solution (17.0 μL) was added dropwise and stirred for 30 min. Then, concentrated hydrochloric acid was dissolved in 250 μL of the polymer solution for 20 min while heating to 50 °C until the solid residue was completely dissolved. The resulting solution of I was added dropwise to the Cu^2+–alginate microgel solution and stirred for 24 h; then, the acid was neutralized with a concentrated NaOH aq. solution. The resulting solutions were purified using flow dialysis. Microgels with substances were lyophilized until a fully dry pinkish powder was obtained.

The nature of data set [3]: Sulforhodamine B (SRB) cytotoxicity assay. It counts as cell-based. Conditions: human, Huh-7.5 cells. Here is the method: Huh7.5 cells were grown in the DMEM/F12 (2:1) medium supplemented with 10% FBS (BioSera, Cholet, France), 2 mM L-glutamine, 100 U/mL penicillin, and 100 µg/mL streptomycin in the presence of 5% CO2 at 37 °C. Cells were re-seeded every three days at a ratio of 1:3 or 1:5. After an incubation period, cell monolayers were fixed with 10% (w/v) trichloroacetic acid and stained for 30 min by adding 100 µL of 0.057% (w/v) SRB solution to each well, after which the excess dye is removed by washing repeatedly with 1% (v/v) acetic acid. The protein-bound dye is dissolved in 10 mM Tris-base solution with pH 10.5 for OD determination using a Tecan Spark multimode microplate reader via absorbance at 510 nm.

Data set [4] in a line: Neutral red (NR) cytotoxicity assay. Format: cell-based. Conditions: human, Huh-7.5 cells. Here is the method:
Huh7.5 cells were grown in the DMEM/F12 (2:1) medium supplemented with 10% FBS (BioSera, Cholet, France), 2 mM L-glutamine, 100 U/mL penicillin, and 100 µg/mL streptomycin in the presence of 5% CO2 at 37 °C. Cells were re-seeded every three days at a ratio of 1:3 or 1:5.
The 40 µg/mL neutral red working solution was prepared, incubated overnight at the same temperature as the cells, and then centrifuged for 10 min at 600× g to remove any precipitated dye crystals. After the incubation with compounds tested at 37 °C in 5% CO2 for 48 h, cells were washed with PBS and then 100 µL of neutral red medium was added to each well of the plate. The plate was incubated for 2 h at the appropriate culture conditions, then the neutral red medium was removed and the cells were washed with PBS. After that 150 µL neutral red destain solution per well was added (50% ethanol, 49% deionized water, 1% glacial acetic acid (Sigma-Aldrich, Burlington, MA, USA). After the neutral red was extracted from the cells and formed a homogeneous solution, the result of the analysis was evaluated using a Tecan Spark multimode microplate reader via absorbance at 540 nm.

One may read the IC50 as the concentration needed to halve the response being measured. As a reminder, the solubility is the dissolved amount per volume that the medium holds. The term CC50 denotes the concentration giving 50% cytotoxicity.

T1 sequence (P12956 whole entry): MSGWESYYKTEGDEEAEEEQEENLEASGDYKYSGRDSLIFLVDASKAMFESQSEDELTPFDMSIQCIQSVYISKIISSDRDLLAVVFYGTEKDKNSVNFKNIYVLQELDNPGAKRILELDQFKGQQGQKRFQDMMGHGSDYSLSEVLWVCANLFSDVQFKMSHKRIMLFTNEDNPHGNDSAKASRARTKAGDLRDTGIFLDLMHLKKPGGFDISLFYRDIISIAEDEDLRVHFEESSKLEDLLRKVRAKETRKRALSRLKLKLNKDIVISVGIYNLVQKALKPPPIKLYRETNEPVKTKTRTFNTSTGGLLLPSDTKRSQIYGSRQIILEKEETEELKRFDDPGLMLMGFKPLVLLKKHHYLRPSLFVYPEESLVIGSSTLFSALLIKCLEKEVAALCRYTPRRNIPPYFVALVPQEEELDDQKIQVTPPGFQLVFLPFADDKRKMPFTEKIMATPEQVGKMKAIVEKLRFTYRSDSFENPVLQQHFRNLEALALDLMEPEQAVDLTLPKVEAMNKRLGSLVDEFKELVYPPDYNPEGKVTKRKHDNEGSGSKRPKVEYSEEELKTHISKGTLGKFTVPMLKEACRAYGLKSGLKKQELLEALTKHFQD
T1 sequence (P13010 whole entry partner): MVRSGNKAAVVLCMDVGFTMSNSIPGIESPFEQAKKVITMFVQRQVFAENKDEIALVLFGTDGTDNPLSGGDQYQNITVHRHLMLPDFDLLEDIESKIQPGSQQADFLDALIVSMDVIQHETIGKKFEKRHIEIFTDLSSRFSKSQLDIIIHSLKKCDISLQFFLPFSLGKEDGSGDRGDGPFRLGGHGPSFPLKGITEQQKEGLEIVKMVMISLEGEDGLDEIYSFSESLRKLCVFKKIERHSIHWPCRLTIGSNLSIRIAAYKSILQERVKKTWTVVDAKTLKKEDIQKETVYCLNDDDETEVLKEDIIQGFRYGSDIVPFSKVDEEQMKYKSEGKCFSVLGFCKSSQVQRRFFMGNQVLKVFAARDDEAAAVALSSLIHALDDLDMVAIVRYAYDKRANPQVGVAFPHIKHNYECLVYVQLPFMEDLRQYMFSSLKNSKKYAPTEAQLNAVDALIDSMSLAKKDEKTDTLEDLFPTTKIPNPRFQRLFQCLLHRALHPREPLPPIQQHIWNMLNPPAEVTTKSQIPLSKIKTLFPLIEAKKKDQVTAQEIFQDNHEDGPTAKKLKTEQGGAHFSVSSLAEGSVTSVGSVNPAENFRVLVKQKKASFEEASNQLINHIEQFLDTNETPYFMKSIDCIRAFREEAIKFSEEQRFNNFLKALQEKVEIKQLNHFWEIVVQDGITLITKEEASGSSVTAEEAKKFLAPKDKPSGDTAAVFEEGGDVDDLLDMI

Turning to `Oc1c(N/N=C/c2ccccc2)ccc2cccnc12` [Compound I, 7-(2-Benzylidenohydrazinyl)-8-hydroxyquinoline], the IC50 came to 0.77 ± 0.03 µM in data set [1] and 40 ± 10 µM on Ku70–DNA complex. Further, the solubility in data set [2] was about 2300 µg/mL (≈ 8.74 mM). Also, the CC50 in data set [3] was found to be 59.5 ± 12.5 µM. Besides, in data set [4], the CC50 at 48 h was determined as 14.5 ± 3.5 µM.
Take `O=[N+]([O-])c1ccc(/C=N/Nc2ccc3cccnc3c2O)cc1` [II, 7-(4-Nitrobenzylidenohydrazinyl)-8-hydroxyquinoline]: the IC50 in data set [1] was found to be 1.2 ± 0.08 µM; at Ku70–DNA complex it was 50 ± 20 µM. This molecule returned a CC50 in data set [3] of 8 ± 0.1 µM. Also, in data set [4], it took 21 ± 4 µM to reach half-maximal cytotoxicity (CC50 at 48 h).
For the molecule `O=[N+]([O-])c1cccc(/C=N/Nc2ccc3cccnc3c2O)c1` [III, 7-(3-Nitrobenzylidenohydrazinyl)-8-hydroxyquinoline], the IC50 was determined as 1.4 ± 0.33 µM in data set [1] and 60 ± 20 µM at Ku70–DNA complex. Moreover, the CC50 in data set [3] amounted to 7.1 ± 0.4 µM. This molecule came in with a CC50 at 48 h in data set [4] of 7.1 ± 0.7 µM.
For `COc1ccc(/C=N/Nc2ccc3cccnc3c2O)cc1` [IV, 7-(4-Methoxybenzylidenohydrazinyl)-8-hydroxyquinoline], the results for the IC50 (in data set [1]; at Ku70–DNA complex) were 0.67 ± 0.05 µM and 80 ± 30 µM, respectively. The molecule further gave a CC50 in data set [3] of 40 ± 0.2 µM. For the same molecule, the CC50 at 48 h in data set [4] is 9.1 ± 1.5 µM.
Turning to `Oc1c(N/N=C/c2ccc(Br)c(Br)c2)ccc2cccnc12` [V, 7-(3,4-Dibromobenzylidenohydrazinyl)-8-hydroxyquinoline], the results for the IC50 (in data set [1]; at Ku70–DNA complex) were under 0.5 µM and 25 ± 8 µM, respectively. The same molecule displayed a CC50 in data set [3] of 6.9 ± 0.3 µM. Also, in data set [4], the CC50 at 48 h turned out to be 8.6 ± 0.1 µM.
In the same order, the values of `Oc1c(N/N=C/c2ccc(F)cc2)ccc2cccnc12` [VI, 7-(4-Fluorobenzylidenohydrazinyl)-8-hydroxyquinoline] are under 0.5 µM, over 250 µM, 7 ± 0.2 µM and 6.7 ± 0.2 µM.
